The record followed here is patent US20030207792A1, “Treating cancer” (priority 2002, published 2003).

Where two headings read alike, the source gives them in different places. Where only a bound is given, the exact number is not on record here.

What all share (assay type): cell-based
One series has as its system pRb. In words: Western blot analysis of pRb level in HCT116 cells 48 h after oligonucleotide transfection. Particulars: oligonucleotide 1 μM with lipofectin 19 μg/ml, extracts after 48 h, Western blot band intensity. As to the method: (§1) Sense and antisense phosphorothionate oligonucleotide with the sequence set out in SEQ1 and SEQ2 respectively were synthesised in a 380B DNA synthesiser. Each oligonucleotide was premixed with lipofectin reagent and diluted in DMEM (Gibco). 6 cm plates of HCT116 cells at 40-50% confluence were rinsed once with 4 ml serum free DMEM and transfected with the oligonucleotides at a final concentration of 1 μM and the lipofectin reagent at a final concentration of 19 μg/ml according to the manufacturer's instructions (Life Technologies Inc., Gaithersburg, Md.). After 4 hours, Foetal Calf Serum (Gibco) was added to a final concentration of 10%. A lipofectin only transfection was performed as a control. Cell extracts were harvested after 48 h and examined by Western blot analysis with a pRb antibody. Equal loading of protein samples was confirmed by Coomassie blue staining or by immunoreactivity with an anti-actin antibody (Sigma). The intensities of the Rb bands were quantised with an image scanner (Molecular Dynamics). […] The treatment with the sense oligonucleotide led to about a 5% reduction in the level of pRb. […] Apoptosis in the cultures 48 h after transfection was tested for using the TUNEL assay. An in situ apoptosis detection kit ApopTag (Oncor, Gaithersburg, Md.) was used as recommended by the manufacturer. […]
(Immunoblotting shows a protein as a band on a membrane.)

Series [1] concerns HCT116 cells. In words: Growth curves of transfected HCT116 cultures. As to conditions: oligonucleotide 1 μM with lipofectin. How it is done:
as §1

Series [2] has as its system HCT116 cells. In words: TUNEL assay (ApopTag) for apoptosis 48 h after transfection. How it is done:
Sense and antisense phosphorothionate oligonucleotide with the sequence set out in SEQ1 and SEQ2 respectively were synthesised in a 380B DNA synthesiser. Each oligonucleotide was premixed with lipofectin reagent and diluted in DMEM (Gibco). 6 cm plates of HCT116 cells at 40-50% confluence were rinsed once with 4 ml serum free DMEM and transfected with the oligonucleotides at a final concentration of 1 μM and the lipofectin reagent at a final concentration of 19 μg/ml according to the manufacturer's instructions (Life Technologies Inc., Gaithersburg, Md.). After 4 hours, Foetal Calf Serum (Gibco) was added to a final concentration of 10%. A lipofectin only transfection was performed as a control. Cell extracts were harvested after 48 h and examined by Western blot analysis with a pRb antibody. Equal loading of protein samples was confirmed by Coomassie blue staining or by immunoreactivity with an anti-actin antibody (Sigma). The intensities of the Rb bands were quantised with an image scanner (Molecular Dynamics). […] The treatment with the sense oligonucleotide led to about a 5% reduction in the level of pRb. […] Apoptosis in the cultures 48 h after transfection was tested for using the TUNEL assay. An in situ apoptosis detection kit ApopTag (Oncor, Gaithersburg, Md.) was used as recommended by the manufacturer. The percentage of TUNEL positive cells was 1.5+/−1% for the lipofectin treated culture, 3+/−0.5% for the culture transfected with the sense oligonucleotide and 18+/−0.5% for the culture transfected with the antisense oligonucleotide. Thus, the sense oligonucleotide caused about a two-fold increase in apoptosis, but the antisense oligonucleotide caused over a 10-fold increase in apoptosis. As the antisense oligonucleotide inhibits growth and increases apoptosis, it is thus an effective chemotherapeutic agent.

Consider “5′-GGTTTTGGGCGGCATGAC-3′ (DNA, all phosphorothioate, methylation of C not given here) [antisense oligonucleotide]”, for which the “level of pRb expression relative to the control culture treated only with lipofectin” value in the series on pRb is reported as “about 30%”. For the same substance, in the series with HCT116 cells [1], the “effect on growth (growth curves) compared with the lipofectin-treated control culture” value was “displayed growth inhibition”. Also, the “percentage of TUNEL positive cells” value in the series on HCT116 cells [2] (HCT116 cells, 48 h after transfection, oligonucleotide 1 μM) was 18+/−0.5%. In the series on HCT116 cells [2] (HCT116 cells, 48 h after transfection, versus lipofectin treated culture), the “fold increase in apoptosis” value is over 10 fold.
As for “5′-GTCATGCCGCCCAAAACC-3′ (phosphorothioate, further chemistry not given here) [sense oligonucleotide, reference compound]”, in the series with HCT116 cells [2], the “fold increase in apoptosis” value is on record as “two-fold”.
